The values that follow come from PubChem BioAssay AID1418 (Emory University Molecular Libraries Screening Center, 2008).

Molecules are shown by their SMILES. Activity calls are given as the source filed them. The rule behind the calls is not given here.

The target of the test is Induced myeloid leukemia cell differentiation protein Mcl-1 (Homo sapiens) (UniProt Q07820). The test can be described thus: blockers of Bid binding to Mcl-1 – biochemical, TR-FRET, dose response (AID 1418). To be noted: Mcl-1/Bid peptide binding, TR-FRET (europium/Dy647), 2 hr.
Chain of Induced myeloid leukemia cell differentiation protein Mcl-1 (Homo sapiens) (Q07820 whole entry, looked up): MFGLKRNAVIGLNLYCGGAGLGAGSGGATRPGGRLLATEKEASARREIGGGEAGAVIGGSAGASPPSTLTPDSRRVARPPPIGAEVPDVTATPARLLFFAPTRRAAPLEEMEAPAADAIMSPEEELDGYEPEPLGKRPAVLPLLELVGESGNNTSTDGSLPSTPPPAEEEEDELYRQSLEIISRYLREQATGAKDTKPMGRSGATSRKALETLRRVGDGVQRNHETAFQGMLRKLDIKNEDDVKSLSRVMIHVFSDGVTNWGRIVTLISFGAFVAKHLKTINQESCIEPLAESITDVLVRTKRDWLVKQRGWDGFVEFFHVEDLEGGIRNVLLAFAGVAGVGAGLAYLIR
By IC50 is commonly meant the concentration at which inhibition is half-maximal. `COc1ccc(-c2ccc(C#N)c(SCC(=O)Nc3sc4c(c3C#N)CCC4)n2)cc1OC`: the IC50 was 0.67 µM.

Take `O=C(O)c1ccc(CS(=O)(=O)Cc2ccccc2F)o1`: the IC50 was > 54 µM (inactive). With `CCN(CC)C(=O)CN(C)S(=O)(=O)c1cccc2nsnc12`, the IC50 was > 54 µM (inactive). For the compound `CCOc1ccc2nc(N3C(=O)/C(=C/c4ccc(Cl)cc4)NC3=S)sc2c1`, the IC50 was 2.43 µM.

Consider `CC(C)(C)c1cc(-c2csc(Nc3ccccc3)[n+]2Cc2ccc(C(=O)O)cc2)cc(C(C)(C)C)c1O`, for which the IC50 was 0.66 µM. Take `COc1cc(NS(=O)(=O)c2ccc(NC(=S)NC(=O)c3sc4ccccc4c3Cl)cc2)nc(OC)n1`: the IC50 is > 54 µM (inactive).

Consider `CC1CN(C(=O)c2cccc(C(=O)N3CC(C)OC(C)C3)c2)CC(C)O1` (centres undefined), for which the IC50 was > 54 µM (inactive). Regarding `O=C(CN1C(=O)S/C(=C\c2ccc(Cl)cc2)C1=O)NNC(=O)c1ccccc1O`, the IC50 was 7.45 µM. As for `Cc1cccc(NC(=O)C2CCN(c3nc(C)cc(C)n3)CC2)c1`, the IC50 is > 54 µM (inactive). The figure for `CC(C)CN(CC(C)C)C(=S)NC1CCCCC1` is > 54 µM (inactive). The figure for `CC(C)(C)C(O)C(Oc1ccc(Cl)cc1)n1cncn1` (centres undefined) is > 54 µM (inactive); for `O=[N+]([O-])c1cc(Cl)cc(/C=N\Nc2ccccn2)c1O` it is 9.24 µM; for `COc1cccc(OC)c1C(=O)N1CCN(c2ccccn2)CC1` it is > 54 µM (inactive).

As for `CCOC(=O)Nc1ccc2c(c1)N(C(=O)OCCN(C)C)c1ccccc1CC2`, the IC50 was > 54 µM (inactive). Regarding `CCOC(=O)c1[nH]cnc1C(=O)Nc1ccncc1`, the IC50 was > 54 µM (inactive).

On to `O=C1/C(=C/C=C/c2ccco2)SC(=S)N1NS(=O)(=O)c1ccccc1`, for which the IC50 is 2.31 µM. The figure for `CC1=C(SCCC#N)S/C(=C2\SC(C)=C(SCCC#N)S2)S1` is 2.84 µM; for `CCN(CCNC(=O)CN1CCN(Cc2ccc(Cl)cc2)C1=O)c1ccccc1` it is > 54 µM (inactive). The figure for `COc1cc(/C=C2\SC(=O)N(c3ccc(Cl)cc3)C2=O)cc([N+](=O)[O-])c1O` is 1.58 µM; for `Cc1ccc(Cn2nc(C)c(NC(=O)CSc3nc4c(c(C(F)(F)F)n3)CCc3ccccc3-4)c2C)cc1` it is 1.91 µM. The figure for `Cc1nc2c(c(=O)n1CCC1=CCCCC1)c1nc3ccccc3nc1n2/N=C/c1ccco1` is > 54 µM (inactive); for `Nc1ccc(C(=O)N/N=C\c2cc(N=Nc3cccc4ccccc34)ccc2O)cc1` it is 12 µM; for `CNNC(=O)C(=O)NNS(=O)(=O)c1ccccc1` it is > 54 µM (inactive). Regarding `Cc1cccc(N(CC(=O)NC2CCCC2)C(=O)c2cc3cc4cccc(C)c4nc3s2)c1C`, the IC50 is > 54 µM (inactive).

For `O=C1N=C2N(CCN3CCCCC3)c3ccccc3N2/C1=C\c1ccc([N+](=O)[O-])o1`, the IC50 is > 54 µM (inactive). The figure for `Cc1c(NC(=S)NC(NC(=O)C(C)C)C(Cl)(Cl)Cl)c(=O)n(-c2ccccc2)n1C` (centres undefined) is > 54 µM (inactive); for `O=C(/C=C/Nc1cccc(F)c1)c1ccco1` it is > 54 µM (inactive); for `CCCc1nc2oc3cc(OC)ccc3c(=O)c2c(=O)n1CCc1ccccc1` it is > 54 µM (inactive). The entry for `O=C(CSc1nnc(COc2cccc3cccnc23)o1)N1CCc2ccccc21` is “inactive”; for `O=C(Oc1ccc(Nc2ncnc3ccccc23)cc1)c1cccnc1` it is > 54 µM (inactive). For the compound `CN1C(=O)/C(=C2\SC(=S)N(CCCCCC(=O)O)C2=O)c2ccccc21`, the IC50 was 29.4 µM.

Take `CCOc1ccc(-c2ccc(/C=C3/C(=N)N4C=CSC4=NC3=O)o2)c([N+](=O)[O-])c1`: the IC50 was 0.86 µM. Turning to `O=C(C1=C[C@@H](c2csc3ccccc23)C[C@@H](OCc2ccc(CO)cc2)O1)N1CCN(Cc2ccc3c(c2)OCO3)CC1`, the IC50 was > 54 µM (inactive). The figure for `COc1ccc(-c2csc(/C(C#N)=C\c3ccc(O)c([N+](=O)[O-])c3)n2)cc1OC` is > 54 µM (inactive); for `Cc1ccc(OCc2ccc(C(=O)Nc3nc4ccccc4n3Cc3ccccc3)o2)c([N+](=O)[O-])c1` it is > 54 µM (inactive). Take `COc1ccc(C2Nc3ccccc3C(=O)N2O)cc1OC` (centres undefined): the IC50 is > 54 µM (inactive). `CCCCN(C)C(=O)c1coc(=O)c2ccccc12`: the IC50 is > 54 µM (inactive). The figure for `O=c1oc2c(O)c(O)cc3c(=O)oc4c(O)c(O)cc1c4c23` is 0.57 µM; for `O=C(CSc1nnc2scc(-c3ccccc3)n12)N1CCN(Cc2ccccc2)CC1` it is > 54 µM (inactive); for `O=S(=O)(c1ccccc1)N1CCN(Cc2ccccc2C(F)(F)F)CC1` it is > 54 µM (inactive). In the case of `Cc1cc(=O)c2ccc(C(F)(F)F)cc2[nH]1`, the IC50 is > 54 µM (inactive). As for `COc1cc(OC)cc(C(=O)N(CCCN2C(=O)c3cccc4cccc(c34)C2=O)c2cccc(OC)c2)c1`, the figure is > 54 µM (inactive).

As to `O=C(CN1C(=O)COc2ccccc21)N(Cc1ccc2c(c1)OCO2)CC1CCCO1` (centres undefined), the IC50 was > 54 µM (inactive). As for `COc1ccc(NC(=O)CN2C(=O)/C(=C3\SC(=S)N(C4CCS(=O)(=O)C4)C3=O)c3ccccc32)cc1` (centres undefined), the figure is 0.72 µM; as for `C[N+](C)(C)c1ccc(/C=N/Nc2nc(Cl)c(C#N)c(Cl)c2Cl)cc1`, > 54 µM (inactive); as for `O=C(CSc1nc2c(cnn2-c2ccc(F)cc2)c(=O)[nH]1)N1CCCc2ccccc21`, > 54 µM (inactive).

Consider `N=C1/C(=C/c2cccn2-c2cccc([N+](=O)[O-])c2)C(=O)N=C2SC=CN12`, for which the IC50 was 12.5 µM.

As for `c1ccc(CSc2nnc(-c3ccco3)c(-c3ccco3)n2)cc1`, the 50% inhibitory concentration (IC50) was 10.2 µM.

`Cc1ccc(-c2nn(C)c(=O)c3ccccc23)cc1CNC(=O)Cn1nc(-c2ccccc2)c2ccccc2c1=O`: the IC50 was 0.56 µM. As for `COC(=O)c1ccc(COC(=O)c2ccc(CS(=O)(=O)c3ccc(C)cc3)cc2)cc1`, the figure is 1.3 µM; as for `O=C(Nc1ccccc1)NC1CCS(=O)(=O)C1` (centres undefined), > 54 µM (inactive). For `O=C(O)c1cccc(N/N=C/C2=C(Cl)c3cc(Cl)ccc3SC2)c1`, the IC50 is 8.44 µM. As for `C/C(C/C(C)=C1/SC(=S)NC1=O)=C1\SC(=S)NC1=O`, the figure is 1.25 µM; as for `O=C(O)c1cc(N2N=C(C(F)(F)F)/C(=C/C=C/c3ccco3)C2=O)ccc1Cl`, 1.4 µM. For `Cc1occc1C(=O)NNC(=O)Nc1ccc([N+](=O)[O-])cc1`, the IC50 was > 54 µM (inactive). The figure for `O=[N+]([O-])c1ccc(-c2nc3ccc([N+](=O)[O-])cc3[nH]2)cc1` is 13 µM; for `C#CCOCCOCCOCCNc1nc(N2CCN(C(=O)[C@H](CCC(=O)O)n3cc(C(N)CC(C)C)nn3)CC2)nc(N2CCN(C(=O)[C@H](CCC(=O)O)n3cc(C(N)[C@H](C)CC)nn3)CC2)n1` (some centres undefined) it is 1 µM. Take `COc1ccc2nc(N3C(=O)/C(=C/c4ccc(Cl)cc4)NC3=S)sc2c1`: the IC50 was 1.75 µM. As for `COc1cccc(CNC(=O)CSCc2cnn(-c3ccccc3)c2-n2cccc2)c1OC`, the figure is > 54 µM (inactive).

Take `COc1cc(/C=C2/SC(=S)NC2=O)ccc1OS(=O)(=O)c1ccc(C)cc1`: the IC50 is 9.94 µM. As to `CCCCOc1ccc(C(=O)NCCC(=O)NCCCC(=O)OCC)cc1`, the IC50 was > 54 µM (inactive). Consider `O=C(c1ccco1)N1C(=O)c2cccc3c(S(=O)(=O)N4CCCC4)ccc1c23`, for which the IC50 was > 54 µM (inactive).

In the case of `NC(=O)c1cnn2c(-c3cccc(C(F)(F)F)c3)ccnc12`, the IC50 was > 54 µM (inactive). In the case of `CC(Cc1ccccc1)NCC(=O)Nc1cc(N(C)C)nc2ccccc12` (centres undefined), the IC50 is > 54 µM (inactive). As for `CN(C)C(=O)/C(C#N)=C\c1cc(Br)c(Sc2ccc(Cl)cc2)o1`, the figure is > 54 µM (inactive). As for `O=c1c2cnn(-c3ccccc3)c2nc(-c2cccs2)n1-c1cccc(Cl)c1`, the figure is > 54 µM (inactive). Turning to `CCS(=O)(=O)N1CCN(C(C)CCc2ccccc2)CC1` (centres undefined), the IC50 was > 54 µM (inactive).

Regarding `CCOc1ccc(NC(=O)CC2C(=O)N(c3ccc(OC)cc3)C(=S)N2Cc2ccccn2)cc1` (centres undefined), the IC50 was > 54 µM (inactive). For `O=C(CN1CCN(CCN2C(=O)c3cccc4cccc(c34)C2=O)CC1)c1ccc(F)cc1`, the IC50 was > 54 µM (inactive). `O=C(O)COc1ccccc1C(Nc1cccnc1)c1cc(Cl)c2cccnc2c1O` (centres undefined): the half-maximal inhibitory concentration (IC50) was 2.52 µM. As for `C=CCn1cc(C(=O)NCc2ccco2)c(=O)c2cc(S(=O)(=O)N3CCCCCC3)ccc21`, the figure is > 54 µM (inactive).

For `CN(CCOC(=O)C1c2ccccc2Oc2ccccc21)C(C)(C)C`, the IC50 was > 54 µM (inactive). On to `CC1=NOC(=O)/C1=C/c1ccc(-c2ccc(Cl)cc2)o1`, for which the IC50 is 8.87 µM.

As for `O=C(CSc1nnc(SCc2ccc(Cl)cc2)s1)N/N=C/c1c[nH]c2ccccc12`, the 50% inhibitory concentration (IC50) was 0.44 µM. Turning to `CN1C(=O)/C(=C/c2ccccc2OCc2cccc(F)c2)NC1=S`, the IC50 is > 54 µM (inactive). For the compound `COc1cccc2cc(C(=O)Oc3ccc(NC(C)=O)cc3)c(=O)oc12`, the IC50 was > 54 µM (inactive). For `COc1cc(/C=C2\SC(=O)N(Cc3ccc(Cl)cc3)C2=O)cc([N+](=O)[O-])c1O`, the IC50 was 16.9 µM.

With `O=C(Nc1ccc(S(=O)(=O)Nc2nccs2)cc1)c1cc(-c2ccccc2Cl)nc2ccccc12`, the IC50 was > 54 µM (inactive).

On to `CN(Cc1ccccc1)Cc1nc2c([nH]1)c(=O)[nH]c(=O)n2C`, for which the IC50 was > 54 µM (inactive). In the case of `CN1CCN(Cc2cccc(Oc3ccc(Cl)cc3)c2)CC1`, the IC50 is > 54 µM (inactive). `COc1cccc2c(=O)c(C/C=C(/C)Cl)c(C)[nH]c12`: the IC50 was > 54 µM (inactive).

Consider `O=C(COc1ccc(S(=O)(=O)N2CCCC2)cc1Cl)NC1CC1`, for which the IC50 was > 54 µM (inactive). Regarding `COc1cc(/C=C2/SC(N)=NC2=O)ccc1Oc1ccc([N+](=O)[O-])cc1[N+](=O)[O-]`, the IC50 is 3.5 µM. Turning to `CCN(CC)c1ccc(CNc2nc3ccccc3n2C)cc1`, the IC50 was > 54 µM (inactive).
